In US20240041854A1, “COLD MEDICINE AND ANTIVIRAL MEDICINE” (OTSUKA PHARMACEUTICAL FACTORY, INC., priority 2020, published 2024):
Where two headings read alike, the source gives them in different places.

Columns and labels:
Type in all cases: cell-based
[1] = system: human coronavirus HCoV-229E; set-up: unit not given here; details: MRC-5 cells, qPCR
[2] = system: human coronavirus OC43 (ATCC VR1588); test: Pharmacological Test 2: OC43 infection of HCT-8 host cells, virus RNA quantified by RT-qPCR; set-up: unit not given here; details: HCT-8 cells
Description: Compound X described above was used as the test compound. […] Comparative Compound 2 used herein was chloroquine phosphate, which has temporarily been approved by the US Food and Drug Administration (FDA) for emergency use in patients with new coronavirus infection.

[3] = system: SARS-CoV-2 (hCoV-19/Germany/BY-ChVir-929/2020); test: Pharmacological Test 3: SARS-CoV-2 infection of Vero E6 host cells, virus amount in culture supernatant by qPCR (Ct value); details: for Ct value (average value): Vero E6 cells, SARS-CoV-2, culture supernatant
Description: Compound X described above was used as the test compound. Vero E6 (ATCC CRL1586) was used as a host cell, and this was cultured on a 96-well plate until a monolayer sheet was obtained. Next, the medium was removed, 50 μL of a mixed suspension medium of SARS-CoV-2 (hCoV-19/Germany/BY-ChVir-929/2020) and a predetermined dose of the test compound was added, and the resultant was allowed to stand at 37° C. for 1 hour. The virus concentration was 150 PFU/well. Subsequently, the medium was removed, and the cells were washed with PBS. Then, a new medium mixed with the same dose of the test compound as before was added, and the cells were cultured at 37° C. overnight. After culturing, the virus amount in the culture supernatant was quantified by qPCR. As the primers and probe, the new coronavirus N1 protein-specific primers and probe specified by the Centers for Disease Control and Prevention (CDC) were used, and the conditions were also in accordance with the conditions specified by the CDC. The number of PCR cycles (Ct value) until the signal intensity of the PCR product reached a predetermined intensity (threshold value) was determined.

Row | SMILES | Virus amount ([1]; 1.6 μM test substance) | Virus amount ([1]; 3.1 μM test substance) | Virus amount ([1]; 6.3 μM test substance) | Virus amount ([1]; 12.5 μM test substance) | Virus amount ([1]; 25 μM test substance) | Virus amount ([1]; 50 μM test substance) | Virus amount ([1]; 0.78 μM test substance) | Virus amount ([1]; 1.58 μM test substance) | Virus amount ([2]; 0.78 μM test compound) | Virus amount ([2]; 3.1 μM test compound) | Virus amount ([2]; 12.5 μM test compound) | Virus amount ([2]; 25 μM test compound) | Virus amount ([2]; 50 μM test compound) | Virus amount ([2]; 1.58 μM test compound) | Virus amount ([2]; 6.3 μM test compound) | other results
1 | NC(=O)c1nccnc1O [Comparative compound, 3-Hydroxypyrazine-2-carboxamide, reference compound] | 1.E+07 | 7.E+06 | 9.E+06 | 5.E+06 | 2.E+07 | 2.E+07 |  |  |  |  |  |  |  |  |  | Virus amount ([1]; 100 μM test substance): 2.E+07
2 | COc1cc(OCc2ncc(C(F)(F)F)cc2F)ccc1-c1nc(-c2ccc(F)nc2)[nH]c1Cl [Compound X, 2-[[4-(5-chloro-2-(6-fluoropyridin-3-yl)-1H-imidazol-4-yl)-3-methoxyphenoxy]methyl]-3-fluoro-5-(trifluoromethyl) pyridine] |  | 5.E+06 | 5.E+06 | 1.E+06 | 4.E+02 | 3.E+03 | 9.E+06 | 1.E+07 | 3.E+08 | 6.E+08 | 2.E+05 | 1.E+05 | 1.E+05 |  |  | Virus amount ([2]; 1.6 μM test compound): 5.E+08; Virus amount ([2]; 6.2 μM test compound): 1.E+08; Ct value (average value) ([3]; 0.78 μM test compound): 21.0; Ct value (average value) ([3]; 1.56 μM test compound): 21.1; Ct value (average value) ([3]; 3.13 μM test compound): 20.9; Ct value (average value) ([3]; 6.25 μM test compound): 21.7; Ct value (average value) ([3]; 12.50 μM test compound): 24.7; Ct value (average value) ([3]; 25.00 μM test compound): 24.8; Ct value (average value) ([3]; 50.00 μM test compound): 24.5; infection-suppressing effect on SARS-CoV-2 ([3]; in words, Vero E6): showed an infection-suppressing effect on SARS-CoV-2
3 | COc1cc(OCc2ncc(C(F)(F)F)cc2F)ccc1-c1nc(-c2ccc(F)nc2)[nH]c1Br [Compound Y, 2-[[4-(5-bromo-2-(6-fluoropyridin-3-yl)-1H-imidazol-4-yl)-3-methoxyphenoxy]methyl]-3-fluoro-5-(trifluoromethyl)pyridine] | 1.E+08 | 1.E+08 |  | 8.E+07 | 4.E+04 | 3.E+04 | 2.E+08 |  |  |  |  |  |  |  |  | Virus amount ([1]; 6.2 μM test substance): 1.E+08
4 | Fc1ccc(-c2nc(-c3ccc(OCc4ncc(C(F)(F)F)cc4F)cc3Cl)c(Cl)[nH]2)cn1 [Compound Z, 2-[[3-chloro-4-(5-chloro-2-(6-fluoropyridin-3-yl)-1H-imidazol-4-yl)phenoxy]methyl]-3-fluoro-5-(trifluoromethyl)pyridine] |  | 3.E+08 | 3.E+08 | 8.E+07 | 2.E+05 | 4.E+04 | 3.E+08 | 1.E+08 |  |  |  |  |  |  |  | 
5 | NC(=O)c1nc(F)c[nH]c1=O [compound 1, favipiravir] |  |  |  |  |  |  |  |  | 4.E+08 | 3.E+08 | 2.E+08 | 2.E+08 | 6.E+08 | 3.E+08 | 3.E+08 | 
6 | CCN(CC)CCCC(C)Nc1ccnc2cc(Cl)ccc12 (stereo not drawn) [compound 2, chloroquine phosphate] |  |  |  |  |  |  |  |  | 2.E+08 | 4.E+08 | 6.E+07 | 3.E+06 | 9.E+06 | 3.E+08 | 6.E+08 | 
